Experimental data from US20080207521A1, “PEPTIDE LIGAND TO IMPAIR CANCER CELL MIGRATION” (priority 2005, published 2008).
Ends that are not written are not given here. * marks the point of attachment. For = O=C*

What was measured:
[1] = system: Wnt-5a antisense HB2 cells; assay: Adhesion of Wnt-5a antisense HB2 cells to collagen I (MTS); format: cell-based, human; details: for adhesion to collagen I, concentration-dependent analysis: 95% pure peptides, different concentrations
Protocol: (§1) The adhesion assay was carried out as previously described (12). Briefly, cells were serum-depleted for 16 h, detached with Versene and allowed to adhere as single cells to collagen I for 60 (MDA-MB-468) or 90 min (HB2) at 37° C. Non-adherent cells were removed by washing with PBS. The adherent cells were incubated with a (3-(4,5-dimethylthiazol-2-yl)-5-(3-carboxymethoxyphenyl)-2-(-4-sulfophenyl)-2H-tetrazolium, inner salt (MTS) dye reduction assay (Promega, Madison, Wis.) and absorbance was measured at 490 nm using a Fluostar microplate reader from BMG LabTechnologies (GmbH, Offenberg, Germany). In each experiment a single value was calculated based on the mean of adhesion from six separate wells after the adhesion to plastic alone had been subtracted. The CM used as a control in the adhesion assays was obtained from confluent Wnt-5a overexpressing HB2 cells (for experiments with Wnt-5a antisense HB2 cells) or Wnt-5a overexpressing MCF-7 cells (for MDA-MB-468 cells) stably transfected with a vector over-expressing Wnt5a. A collected CM was always used within three days.
To control the specificity of the CM, it was incubated with either the Wnt-5a or a control Ab for 45 min at 37° C. Subsequently 10 μl Protein A Sepharose was added for 30 min and after the protein A-bound antibodies were collected by centrifugation the remaining supernatants were used for the experiments.
Effects of crude peptides on adhesion of Wnt-5a antisense HB2 cells to collagen. (A) Single cells were allowed to adhere for 90 min in the absence or presence of the indicated crude peptides (100 μM). The amounts of adhesive cells were analyzed as described in the methods and the results are given as means±SEM of 7 separate experiments. (B) Adhesion of Wnt-5a antisense HB2 cells to collagen was analyzed after pre-treating the cells with an anti-[…]1-integrin Ab for 45 min before letting them adhere for 90 min in the absence or presence of peptides 171 or 175 (100 μM) or CM. The amounts of adhesive cells were analyzed as described in the methods and the results are given as means±SEM of 6 separate experiments (C) The diagram outlines a control of the presently used CM. The cells were allowed to adhere to collagen I-coated wells in the absence or presence of normal CM or Wnt-5a depleted CM. The amounts of adhesive cells were analyzed as described in the methods and the results are given as means±SEM of 6 separate experiments. Ns=not significant, * p<0.05, ** p<0.01 and *** p<0.001.
Effects of the selected and pure peptides on the ability of Wnt-5a antisense HB2 cells to adhere and migrate. (A-E) The ability of the cells to adhere to collagen type I-coated wells was analyzed as previously described for FIG. 2 in the absence or presence of different concentrations of the indicated peptide. (F) Effect of the indicated peptides on migration of Wnt-5a antisense HB2 in a transwell migration assay. The cells were allowed to migrate for 18 h in the absence or presence of 100 μM peptide or 0.4 μg/ml of recombinant Wnt5a. The data are given as means±SEM of 6-7 separate experiments, each performed in triplicate. * p<0.05 and ** p<0.01.

DDR1 = assay: Collagen-induced DDR1 phosphorylation in Wnt-5a antisense HB2 cells (immunoprecipitation/Western blot); format: cell-based, human; details: crude peptide (approximately 65% pure) 100 μM; 90 min on collagen I
Protocol: The phosphorylation status of DDR1 was analyzed as previously described (12), with the following modifications. After serum-depletion for 16 h, the cells were detached with Versene and then allowed to adhere to collagen I for 60 (MDA-MB-468) or 90 min (HB2) at 37° C. The experiments were terminated by lysing both adherent and non-adherent cells with a lysis buffer (50 mM Tris pH 7.4, 1% Triton-X, 5 mM EDTA, 5 mM EGTA, 50 mM NaCl, 10 μg/ml aprotinin, 2.5 mM benzamidine, 1 mM pefabloc, 1 μg/ml leupeptin and 1 mM Na3VO4). For immunoblotting an anti-DDR1 rabbit polyclonal Ab, sc-532 (Santa Cruz Biotech, Santa Cruz, Calif.) was used at a dilution of 1:10,000. The Ab recognizes DDR1b/c, which is essential because collagen only induces phosphorylation of the b or c isoforms of DDR1 in mammary epithelial cells (10).
Effects of crude peptides on collagen-induced DDR1 phosphorylation in Wnt-5a antisense HB2 cells. Single cells were allowed to adhere to collagen I-coated plates in the presence of the indicated crude peptide (100 μM). (A) Experiments performed in the presence of peptides 167-173. (B) Experiments performed in the presence of peptides 175-180. After 90 min the cells were lysed and DDR1 immunoprecipitated. Subsequently, the immunoprecipitates were subjected to Western blot analysis with an anti-phosphotyrosine Ab and then, after stripping, with an anti-DDR1 Ab to ascertain equal loading. The blots shown are representative of 3 separate experiments The diagrams show densitometric analysis of DDR1 phosphorylation, expressed as per cent of control.

MDA-MB-468 cells [2] = assay: Adhesion of MDA-MB-468 breast cancer cells to collagen I (MTS); format: cell-based, human; details: for adhesion to collagen I, N-terminal deletion variants and formylation of peptide 175: 60 min; for MDA-MB-468 cell adhesion: control 15.3±3.6, n=6
Protocol: as §1
Peptide-induced effects on adhesion and DDR1 phosphorylation in MDA-MB-468 breast cancer cells. (A) Western blot analysis of Wnt-5a protein expression in Wnt-5a antisense and Wnt-5a over-expressing HB2 cells in comparison to MDA-MB-468 tumour cells. The blot is representative of 9 separate experiments. (B) Peptide-induced effects on MDA-MB-468 tumour cell adhesion. The cells were allowed to adhere to collagen type I-coated wells for 60 min in the absence or presence of 100 μM of the indicated peptides or CM. The amounts of adhesive cells were analyzed as described in the methods and the results are given as means±SEM of 8 separate experiments. (C) MDA-MB-468 cell adhesion to collagen I-coated wells in the absence or presence of peptide 175 or a peptide with same amino acid sequence except for a substitution of cysteine for alanine (175Ala) or CM. The amount of adherent cells was estimated as in panel A and expressed as means±SEM of 6 separate experiments, ns=not significant, ** p<0.01 and *** p<0.001. (D) Single MDA-MB-468 cells were allowed to adhere to collagen I-coated plates for 60 min in the absence or presence of the indicated peptides (100 μM), CM or recombinant Wnt-5a (0.8 µg/ml). DDR1 immunoprecipitates were Western blotted with first an anti-phosphotyrosine Ab and then after stripping with an anti-DDR1 Ab. The blots shown are representative of 6 separate experiments.
(§2) Effects of peptide 175 modifications on its ability to induce MDA-MB-468 tumour cell adhesion and migration. (A) The cells were allowed to adhere for 60 min to collagen-I coated wells in the absence or presence of peptide 175, three stepwise N-terminal deletion variants of peptide 175 or a formylated version of the tested hexapeptide derived from peptide 175. The amounts of adhesive cells were analyzed as described in the methods and the results are given as means±SEM of 6 separate experiments. (B and C) The cells were allowed to migrate for 18 h in the absence or presence of 1 or 10 μM of peptide 175 (B) or the formylated hexapeptide (C). The data are given as means±SEM of 6 separate experiments, each performed in triplicate. * p<0.05, p<0.01.

MDA-MB-468 cells [3] = assay: Migration of MDA-MB-468 cells in modified Boyden chamber; format: cell-based, human; details: 18 h
Protocol: The HB2 mammary epithelial cell line, a subclone of the MTSV-1.7 cell line, originating from the laboratory of Dr. J. Taylor-Papadimitriou (11) was used. The HB2 cells were cultured in DMEM supplemented with 10% FBS, 5 U/mi penicillin, 0.5 U/ml streptomycin, 2 mM glutamine, 10 μg/ml bovine insulin and 5 μg/ml hydrocortisone. The human mammary carcinoma cell lines MCF-7 and MDA-MB-468 were cultured in DMEM supplemented with 10% FBS, 5 U/ml penicillin, 0.5 U/ml streptomycin and 2 mM glutamine. The pH-experiments were done in MEM supplemented with 10 mM Tris, 0.5% BSA, 5 U/ml penicillin, 0.5 U/ml streptomycin and 2 mM glutamine. The pH 7.4-medium was further supplemented with 4 mM sodium bicarbonate whereas the pH 6.7-medium was not. All cells were incubated at 37° C. in 95% air and 5% CO2.
Cell migration analyses were performed in a modified Boyden chamber with a polycarbonate membrane (10 μm thick with a porous diameter of 8.0 μm) separating the two chambers (Transwell®; Costar, Cambridge, Mass.). As indicated in some experiments the membranes were coated with collagen by adding collagen-I (10 μg/ml) diluted in 0.25% acetic acid to the upper chamber for 1 h at 37° C., after which it was washed three times with PBS. Each experiment was initiated by detaching the cells by Versene treatment for 10-20 min at 37° C., washed, and re-suspended as a single cell suspension in serum-free DMEM medium supplemented with 0.5% BSA. Together with the indicated agonist a 0.2 ml cell suspension (containing 25,000 MDA-MB-468 or 50,000 HB2 cells) was then added to the upper chamber of the transwell. The lower chamber was filled with 0.6 ml serum-free but BSA-containing DMEM medium supplemented with 1 ng/ml of the chemoattractant IGF-I. As a control, IGF-I was excluded in some wells in each separate experiment. The cells were allowed to migrate in the Boyden chamber for 18 h at 37° C. in a humidified atmosphere of 95% air and 5% CO2. The experiments were terminated by removing the non-migratory cells with a cotton-tipped applicator from the upper surface of the membranes. The remaining cells on the lower surface that had migrated through the membrane were stained for 20 min with 0.5% crystal violet diluted in 20% methanol/80% water. After washing the membranes the number of stained cells per membrane and well was counted in an inverted microscope. The value from each separate experiment represents the median value of three individual wells.
Peptide-induced effects on MDA-MB-468 tumour cell migration and their content of F-actin. (A) The cells were allowed to migrate for 18 h in the absence or presence of the indicated peptides (100 μM) The data in panel A are expressed as means±SEM of 8 separate experiments, each performed in triplicate. * p<0.05. (B) The cells were allowed to adhere to collagen I-coated cover glasses for 18h in the absence or presence of peptide 175 (100 μM). The cells were then stained with Alexa488-Phalloidin as described in the methods section. The illustrated micrographs are representative of 5 separate experiments.
as §2
Effects of Frz-5 receptor blocking and reduced pH on the abilities of the formylated hexapeptide and Wnt-5a to inhibit tumour cell migration. […]

Frz-5 receptor = Frz-5 receptor (Homo sapiens, UniProt Q13467); assay: MDA-MB-468 cell migration with Frz-5 receptor blocking Ab or control anti-Frz-2 Ab; format: cell-based; set-up: endogenous in cells; host or cells: MDA-MB-468; details: formylated hexapeptide 100 μM; Ab 5 μg/ml; 18 h
Chain of Frz-5 receptor (Q13467 27-585): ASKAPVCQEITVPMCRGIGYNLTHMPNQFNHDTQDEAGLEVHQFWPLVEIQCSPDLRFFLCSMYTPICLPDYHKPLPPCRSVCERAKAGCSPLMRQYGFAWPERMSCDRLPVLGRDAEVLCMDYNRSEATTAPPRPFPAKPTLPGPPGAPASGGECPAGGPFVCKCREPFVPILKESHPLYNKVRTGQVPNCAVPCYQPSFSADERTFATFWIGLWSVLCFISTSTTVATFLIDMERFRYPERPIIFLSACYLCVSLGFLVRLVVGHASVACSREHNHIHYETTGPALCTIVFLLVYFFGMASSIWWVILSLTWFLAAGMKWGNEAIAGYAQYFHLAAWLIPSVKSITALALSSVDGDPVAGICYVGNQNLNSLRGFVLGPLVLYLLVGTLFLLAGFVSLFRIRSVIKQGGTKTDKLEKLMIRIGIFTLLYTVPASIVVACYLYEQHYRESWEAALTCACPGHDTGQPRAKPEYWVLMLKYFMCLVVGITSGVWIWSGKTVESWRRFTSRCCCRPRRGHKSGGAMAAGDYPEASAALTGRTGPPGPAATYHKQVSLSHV
Protocol: The peptide […], corresponding to amino acids 198-217 in the ectodomain of the human Frz-5 receptor was as previously described used to generate a Frz-5 receptor blocking Ab (13). The peptide […], corresponding to amino acids 202-220 in the ectodomain of the human Frz-2 receptor, was used to generate a control anti-Frz-2 Ab. The synthesis of the peptides (the italic letters indicate the Frz-5 and Frz-2 sequences, the cysteine was added for raising and purifying the Ab) and the production of rabbit anti-Frz-5 and anti-Frz-2 antisera were managed by AgriSera (Vännäs, Sweden; permit A69-04 from Ume(a) animal ethic committe). The antisera were affinity purified in the laboratory by coupling the respective peptide antigen to Sulfolink Sepharose over which the respective antisera was then eluted.
Cell migration analyses were performed in a modified Boyden chamber with a polycarbonate membrane (10 μm thick with a porous diameter of 8.0 μm) separating the two chambers (Transwell®; Costar, Cambridge, Mass.). As indicated in some experiments the membranes were coated with collagen by adding collagen-I (10 μg/ml) diluted in 0.25% acetic acid to the upper chamber for 1 h at 37° C., after which it was washed three times with PBS. […] After washing the membranes the number of stained cells per membrane and well was counted in an inverted microscope. […]

With “LGTQGRLCNKTSEGMDGCEL (Human) [peptide 174, Wnt-5a aa 303-322]” the “adhesion to collagen I, concentration-dependent analysis” value [1] was “not as effective as the shorter peptide 175”.

With “DARERERIHAKGSYE [peptide 168, Wnt-5a aa 183-197]” the DDR1 phosphorylation (DDR1) was “significant DDR1 phosphorylation” and the “adhesion to collagen I” value ([1]; crude peptide (65% pure) 100 μM, 90 min) was “did not have any effect on adhesion”.

For “formyl-Met-Asp-Gly-Cys-Glu-Leu (For-MDGCEL) [formylated hexapeptide]”, the “adhesion to collagen I, N-terminal deletion variants and formylation of peptide 175” value (shortened to “adhesion to collagen I … of peptide 175”) (MDA-MB-468 cells [2]) was “restored, and possibly even potentiated its effect on adhesion”, the “inhibition of migration at pH 6.7 versus pH 7.4” value (MDA-MB-468 cells [3]; 10 μM) was “as effective in inhibiting MDA-MB-468 cell migration at pH 6.7 as at pH 7.4” and the “motility (migration)” value (MDA-MB-468 cells [3]; 10 μM) was “significantly impaired the motility”. For the same substance, the “minimal concentration that had a significant effect on migration” value (MDA-MB-468 cells [3]) was 10 µM and the “effect on migration in presence of anti-Frz-5 or anti-Frz-2 Ab” value (Frz-5 receptor) was “mediated via the Frz-5 receptor”.

With “EGMDGCEL (Human) [octapeptide, N-terminal deletion variant of peptide 175]” the “adhesion to collagen I … of peptide 175” value (MDA-MB-468 cells [2]) was “still had adhesion-increasing effects”.

In the case of fMet-Leu-Phe (MLF) [reference compound], the MDA-MB-468 cell adhesion (MDA-MB-468 cells [2]) was 15.7±4.5 and the MDA-MB-468 cell adhesion (MDA-MB-468 cells [2]; listed as N-formyl-Met-Leu-Phe) was “no effect”.

In the case of “MDGCEL [hexapeptide, N-terminal deletion variant of peptide 175]”, the “adhesion to collagen I … of peptide 175” value (MDA-MB-468 cells [2]) was “no effect was detectable and none”.

“VKAKKATEIVDQFVA [compound 170, Wnt-5a aa 350-364; the 3 cysteines exchanged to alanines]” was tested, and the DDR1 phosphorylation (DDR1) was “significant DDR1 phosphorylation” and the “adhesion to collagen I, concentration-dependent analysis” value [1] was “lost or less consistent”.
